Source: patent US7390903B2, “Thieno-pyridine derivatives as allosteric enhancers of the GABAB receptors” (Hoffmann-La Roche Inc., priority 2004, dated 2008)

Key:
[1] = PO, cited from earlier work
[2] = panic disorder patients; Hamilton, Zung anxiety scales, Katz-R nervousness subscale; cited from earlier work
[3] = small group of veterans with chronic, combat-related PTSD; cited from earlier work
[4] = rat; cited from earlier work
[5] = rats; cited from earlier work
[6] = preclinical; cited from earlier work
[7] = molecular target: GABABR1R2 (Homo sapiens, UniProt O75899+Q9UBS5); conditions: cited from earlier work; for effect on their own at GABAB receptors: absence of GABA; for effect on potency and maximal efficacy of GABA: in concert with endogenous GABA, GABABR1R2
Sequence of GABABR1R2 (Q9UBS5 20-961): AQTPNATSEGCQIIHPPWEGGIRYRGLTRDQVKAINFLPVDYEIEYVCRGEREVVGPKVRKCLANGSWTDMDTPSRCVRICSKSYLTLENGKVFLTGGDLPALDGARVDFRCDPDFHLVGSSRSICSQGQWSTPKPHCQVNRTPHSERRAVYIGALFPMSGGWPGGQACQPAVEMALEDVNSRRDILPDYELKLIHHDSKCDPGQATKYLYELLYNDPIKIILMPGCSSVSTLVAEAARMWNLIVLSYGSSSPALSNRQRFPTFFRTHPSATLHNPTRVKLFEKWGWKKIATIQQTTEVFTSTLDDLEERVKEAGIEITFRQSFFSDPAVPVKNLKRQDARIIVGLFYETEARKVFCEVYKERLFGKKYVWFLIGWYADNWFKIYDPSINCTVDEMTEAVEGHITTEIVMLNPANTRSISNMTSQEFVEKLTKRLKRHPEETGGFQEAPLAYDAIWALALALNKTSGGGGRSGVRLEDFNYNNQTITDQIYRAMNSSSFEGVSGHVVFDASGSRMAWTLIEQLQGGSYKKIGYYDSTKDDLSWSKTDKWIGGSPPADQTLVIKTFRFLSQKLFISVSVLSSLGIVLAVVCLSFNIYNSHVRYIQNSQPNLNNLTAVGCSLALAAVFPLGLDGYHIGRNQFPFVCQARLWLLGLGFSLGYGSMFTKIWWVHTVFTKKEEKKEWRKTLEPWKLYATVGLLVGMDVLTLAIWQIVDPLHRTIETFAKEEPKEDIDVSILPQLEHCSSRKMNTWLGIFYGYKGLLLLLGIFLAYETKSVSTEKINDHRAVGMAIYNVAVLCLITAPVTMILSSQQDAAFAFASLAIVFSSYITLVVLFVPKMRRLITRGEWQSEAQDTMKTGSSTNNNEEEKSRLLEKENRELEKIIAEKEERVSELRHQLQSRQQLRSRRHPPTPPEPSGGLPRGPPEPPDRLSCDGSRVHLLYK
Sequence of GABABR1R2 (O75899 42-941): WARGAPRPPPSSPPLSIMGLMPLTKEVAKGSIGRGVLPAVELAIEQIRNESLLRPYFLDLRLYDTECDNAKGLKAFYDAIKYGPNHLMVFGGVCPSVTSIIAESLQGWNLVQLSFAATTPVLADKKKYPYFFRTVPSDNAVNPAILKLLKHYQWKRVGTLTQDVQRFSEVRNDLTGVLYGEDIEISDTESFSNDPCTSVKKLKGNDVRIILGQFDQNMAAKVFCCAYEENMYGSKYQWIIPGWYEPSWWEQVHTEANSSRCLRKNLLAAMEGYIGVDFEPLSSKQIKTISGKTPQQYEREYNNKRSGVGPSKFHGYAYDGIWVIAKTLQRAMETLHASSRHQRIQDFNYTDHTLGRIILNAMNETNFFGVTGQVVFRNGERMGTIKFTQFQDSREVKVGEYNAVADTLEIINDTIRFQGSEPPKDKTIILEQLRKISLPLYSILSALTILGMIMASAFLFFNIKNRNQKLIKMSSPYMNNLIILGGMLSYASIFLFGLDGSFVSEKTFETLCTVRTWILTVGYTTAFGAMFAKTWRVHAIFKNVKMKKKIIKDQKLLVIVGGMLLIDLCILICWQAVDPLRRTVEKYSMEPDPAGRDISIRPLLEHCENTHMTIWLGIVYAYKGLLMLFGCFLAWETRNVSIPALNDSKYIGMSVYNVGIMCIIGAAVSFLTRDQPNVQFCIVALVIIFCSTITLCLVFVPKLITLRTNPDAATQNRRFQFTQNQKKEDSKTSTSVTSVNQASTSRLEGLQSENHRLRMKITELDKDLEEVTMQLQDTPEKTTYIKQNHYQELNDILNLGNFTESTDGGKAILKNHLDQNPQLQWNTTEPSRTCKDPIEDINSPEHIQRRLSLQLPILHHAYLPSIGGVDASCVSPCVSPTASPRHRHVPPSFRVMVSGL

[8] = molecular target: T1, human GABABR1aR2a (Homo sapiens, UniProt O75899+Q9UBS5); experiment: Intracellular Ca2+ mobilization assay in CHO-GABABR1aR2a-Gα16 cell (FLIPR); format: cell-based; conditions: for GABA shift Log [EC50(GABA + 10 μM cp)/EC50(GABA alone)]: GABA 0.0003-30 μM in absence and presence of 10 μM enhancer; for Emax: enhancer 0.001-30 μM in the presence of 10 nM GABA (EC10), enhancer applied 15 min before GABA, read-out: Emax (%) at 10 nM GABA alone = 0% 10 μM GABA alone = 100%; for EC50: enhancer concentration-response (0.001-30 μM) in the presence of 10 nM GABA
T1 construct: expressed in transfected cells
T1 sequence (Q9UBS5 15-961 limits assumed): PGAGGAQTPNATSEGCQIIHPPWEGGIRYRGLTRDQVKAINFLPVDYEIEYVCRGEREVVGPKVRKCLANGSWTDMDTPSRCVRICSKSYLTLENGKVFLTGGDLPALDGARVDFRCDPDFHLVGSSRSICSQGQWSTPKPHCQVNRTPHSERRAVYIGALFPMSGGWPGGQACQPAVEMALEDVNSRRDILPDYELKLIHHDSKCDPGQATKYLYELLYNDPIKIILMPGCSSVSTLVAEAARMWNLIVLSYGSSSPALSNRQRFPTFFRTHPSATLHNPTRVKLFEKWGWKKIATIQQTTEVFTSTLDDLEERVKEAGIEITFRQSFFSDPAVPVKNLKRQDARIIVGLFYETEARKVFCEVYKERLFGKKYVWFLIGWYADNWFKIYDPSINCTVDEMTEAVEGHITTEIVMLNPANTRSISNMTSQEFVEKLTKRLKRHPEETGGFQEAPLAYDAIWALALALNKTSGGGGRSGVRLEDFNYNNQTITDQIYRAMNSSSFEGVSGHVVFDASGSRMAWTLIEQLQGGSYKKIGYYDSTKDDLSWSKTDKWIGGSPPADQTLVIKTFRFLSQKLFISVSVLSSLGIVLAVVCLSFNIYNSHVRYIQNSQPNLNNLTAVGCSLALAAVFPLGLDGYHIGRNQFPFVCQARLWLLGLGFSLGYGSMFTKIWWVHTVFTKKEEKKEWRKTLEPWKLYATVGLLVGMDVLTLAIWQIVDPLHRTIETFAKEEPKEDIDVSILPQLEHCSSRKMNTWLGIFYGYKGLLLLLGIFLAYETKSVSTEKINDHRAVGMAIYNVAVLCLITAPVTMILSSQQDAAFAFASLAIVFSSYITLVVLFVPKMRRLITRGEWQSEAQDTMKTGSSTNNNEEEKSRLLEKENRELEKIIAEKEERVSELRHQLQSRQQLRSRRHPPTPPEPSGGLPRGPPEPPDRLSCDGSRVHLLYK
T1 sequence (O75899 42-941): as the sequence (O75899 42-941) above
Procedure: Intracellular Ca^2+ Mobilization Assay
The Chinese Hamster Ovary (CHO) cells stably expressing human GABABR1aR2a and Gα16 were seeded at 5×10^4 cells/well in the poly-D-lysine treated, 96-well, black/clear-bottomed plates (BD Biosciences, Palo Alto, Calif.). 24 h later, the cells were loaded for 90 min at 37° C. with 4 μM Flou-4 acetoxymethyl ester (Catalog No. F-14202, Molecular Probes, Eugene, Oreg.) in loading buffer (1×HBSS, 20 mM HEPES, 2.5 mM Probenecid). Hanks' Balanced Salt Solution (HBSS) (10×) (catalog No. 14065-049) and HEPES (1M) (catalog No. 15630-056) were purchased from Invitrogen, Carlsbad, Calif. Probenecid (250 mM) (catalog No. P8761) was from Sigma, Buchs, Switzerland. The cells were washed five times with loading buffer to remove excess dye and intracellular calcium mobilization, [Ca^2+]i were measured using a Fluorometric Imaging Plate Reader (FLIPR, Molecular Devices, Menlo Park, Calif.) as described previously (Porter et al., Br. J. Pharmacol., 128, 13-20, 1999). The enhancers were applied 15 min before the application of the GABA. For GABA shift assay, concentration-response curves of GABA (0.0003-30 μM) were determined in the absence and presence of 10 μM enhancer. The GABA-shift is defined as Log [EC50 (GABA+10 μM enhancer)/EC50 (GABA alone)]. The % maximum enhancing effect (% Emax) and potency (EC50 value) of each enhancer was determined from concentration-response curve of the enhancer (0.001-30 μM) in the presence of 10 nM GABA (EC10). Responses were measured as peak increase in fluorescence minus basal, normalized to the maximal stimulatory effect induced by 10 μM GABA alone (considered 100%) and 10 nM GABA alone (considered 0%). The data were fitted with the equation Y=100+(Max−100)/(1+(EC50/[drug])^n) where Max is the maximum effect, EC50 the concentration eliciting a half-maximum effect and n the Hill slope.

[9] = passive avoidance behavioral test in mice and rats; cited from earlier work
[10] = cited from earlier work

NCC(CC(=O)O)c1ccc(Cl)cc1 (stereo not drawn) [Baclofen, β-chlorophenyl GABA]
side effects (spontaneous locomotor activity, rotarod, body temperature, traction test) ([1]; 2.5-15 mg/kg): showed these side effects | number of panic attacks and symptoms of anxiety [2]: significantly effective in reducing the number of panic attacks and symptoms of anxiety | treatment of PTSD [3]: effective and well-tolerated treatment | reversal of reduction in prepulse inhibition (PPI) induced by dizocilpine [4]: able to reverse the reduction in prepulse inhibition

CC(C)(CO)Cc1cc(C(C)(C)C)c(O)c(C(C)(C)C)c1 [CGP7930, 2,6-di-tert-butyl-4-(3-hydroxy-2,2-dimethyl-propyl)-phenol]
cocaine self-administration [5]: effective at deceasing cocaine self-administration | efficacy for treatment of GERD [6]: found to be effective | effect on their own at GABAB receptors [7]: no effect on their own | effect on potency and maximal efficacy of GABA [7]: increase both the potency and maximal efficacy of GABA

CC(C)(C=O)Cc1cc(C(C)(C)C)c(O)c(C(C)(C)C)c1 [CGP13501]
effect on their own at GABAB receptors [7]: no effect on their own | effect on potency and maximal efficacy of GABA [7]: increase both the potency and maximal efficacy of GABA

Cc1nc2sc3c(c2c(-c2ccc(Cl)c(Cl)c2)c1C(=O)C(F)(F)F)CCC3 [Example 1, 1-[4-(3,4-Dichloro-phenyl)-2-methyl-6,7-dihydro-5H-cyclopenta[4,5]thieno[2,3-b]pyridin-3-yl]-2,2,2-trifluoro-ethanone]
GABA shift Log [EC50(GABA + 10 μM cp)/EC50(GABA alone)] [8]: −0.3 | Emax [8]: 47% | EC50 [8]: 14.7 µM

Cc1nc2sc3c(c2c(-c2cccs2)c1C(=O)C(F)(F)F)CCC3 [Example 2, 2,2,2-Trifluoro-1-(2-methyl-4-thiophen-2-yl-6,7-dihydro-5H-cyclopenta[4,5]thieno[2,3-b]pyridin-3-yl)-ethanone]
GABA shift Log [EC50(GABA + 10 μM cp)/EC50(GABA alone)] [8]: −0.9 | Emax [8]: 59% | EC50 [8]: 1.3 µM

Cc1nc2sc(C)c(C)c2c(-c2ccccc2)c1C(=O)C(F)(F)F [Example 16, 2,2,2-Trifluoro-1-(2,3,6-trimethyl-4-phenyl-thieno[2,3-b]pyridin-5-yl)-ethanone]
GABA shift Log [EC50(GABA + 10 μM cp)/EC50(GABA alone)] [8]: −0.9 | Emax [8]: 69% | EC50 [8]: 2.4 µM

CC(=O)c1c(C)nc2sc3c(c2c1-c1ccco1)CCC3 [Example 18, 1-(4-Furan-2-yl-2-methyl-6,7-dihydro-5H-cyclopenta[4,5]thieno[2,3-b]pyridin-3-yl)-ethanone]
GABA shift Log [EC50(GABA + 10 μM cp)/EC50(GABA alone)] [8]: −1 | Emax [8]: 58% | EC50 [8]: 0.86 µM

Cc1nc2sc(Cl)cc2c(-c2ccccc2)c1C(=O)C(F)(F)F [Example 21, 1-(2-Chloro-6-methyl-4-phenyl-thieno[2,3-b]pyridin-5-yl)-2,2,2-trifluoro-ethanone]
GABA shift Log [EC50(GABA + 10 μM cp)/EC50(GABA alone)] [8]: −1.1 | Emax [8]: 66% | EC50 [8]: 1.9 µM

CC(=O)c1c(C)nc2sc3cnccc3c2c1-c1ccccc1 [Example 23, 1-(2-Methyl-4-phenyl-9-thia-1,7-diaza-fluoren-3-yl)-ethanone]
GABA shift Log [EC50(GABA + 10 μM cp)/EC50(GABA alone)] [8]: −0.6 | Emax [8]: 35% | EC50 [8]: 1.3 µM

COC(=O)c1ccc(-c2c(C(=O)C3CC3)c(C)nc3sc4c(c23)CCCCC4)cc1 [Example 35, 4-(3-Cyclopropanecarbonyl-2-methyl-6,7,8,9-tetrahydro-H-10-thia-1-aza-benzo [a]azulen-4-yl)-benzoic acid methyl ester]
GABA shift Log [EC50(GABA + 10 μM cp)/EC50(GABA alone)] [8]: −0.91 | Emax [8]: 56% | EC50 [8]: 1.2 µM

COC(=O)N1CCc2c(sc3nc(C)c(C(C)=O)c(-c4ccccc4)c23)C1 [Example 38, 3-Acetyl-2-methyl-4-phenyl-5,8-dihydro-6H-9-thia-1,7-diaza-fluorene-7-carboxylic acid methyl ester]
GABA shift Log [EC50(GABA + 10 μM cp)/EC50(GABA alone)] [8]: −0.3 | Emax [8]: 20% | EC50 [8]: 1.4 µM

CSc1nc(NC2CCCC2)c([N+](=O)[O-])c(NC2CCCC2)n1 [GS39783, N,N_-dicyclopentyl-2-methylsulfanyl-5-nitro-pyrimidine-4,6-diamine]
effect on spontaneous locomotor activity, rotarod, body temperature and traction test ([1]; 0.1-200 mg/kg): had no effect | effect on cognition performance [9]: did not have any effect | tolerance after chronic treatment ([10]; 21 days, 10 mg/kg, P.O., once daily, light-dark box and elevated zero maze): No tolerance | anxiolytic-like effects ([10]; elevated plus maze (rat), elevated zero maze (mice and rats), stress-induced hyperthermia (mice)): exhibited anxiolytic-like effects | cocaine self-administration [5]: effective at deceasing cocaine self-administration
